Read-outs that look alike come from different tables or passages of the source.
Key:
JeKo-1 cells = assay: Antiproliferative effect, MTS cell viability assay, JeKo-1 cells; format: cell-based; settings: Homo sapiens; JeKo-1 mantle cell lymphoma cells; read-out: IC50 (anti-proliferation) JeKO-1 cells
In short: (§1)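 Cells were exposed to compound at 0, 0.001, 0.01, 0.1, 1 and 10 μM for 72 h. Viability was then measured by MTS assay, reading formazan produced by metabolically active cells as absorbance at 490 nm.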

Mino cells = assay: Antiproliferative effect, MTS cell viability assay, Mino cells; format: cell-based; settings: Homo sapiens, Mino mantle cell lymphoma cells, read-out: IC50 (anti-proliferation) Mino cells
In short: as §1

BTK = BTK (Homo sapiens, UniProt Q06187); assay: Degradation of BTK protein in Namalwa cells (Western blot; DC50, Dmax); settings: for DC50: read-out: DC50 (BTK degradation), concentration giving 50% reduction of BTK expression level, cell line not given; for Dmax: read-out: Dmax (BTK degradation)
Chain of BTK (Q06187 whole entry): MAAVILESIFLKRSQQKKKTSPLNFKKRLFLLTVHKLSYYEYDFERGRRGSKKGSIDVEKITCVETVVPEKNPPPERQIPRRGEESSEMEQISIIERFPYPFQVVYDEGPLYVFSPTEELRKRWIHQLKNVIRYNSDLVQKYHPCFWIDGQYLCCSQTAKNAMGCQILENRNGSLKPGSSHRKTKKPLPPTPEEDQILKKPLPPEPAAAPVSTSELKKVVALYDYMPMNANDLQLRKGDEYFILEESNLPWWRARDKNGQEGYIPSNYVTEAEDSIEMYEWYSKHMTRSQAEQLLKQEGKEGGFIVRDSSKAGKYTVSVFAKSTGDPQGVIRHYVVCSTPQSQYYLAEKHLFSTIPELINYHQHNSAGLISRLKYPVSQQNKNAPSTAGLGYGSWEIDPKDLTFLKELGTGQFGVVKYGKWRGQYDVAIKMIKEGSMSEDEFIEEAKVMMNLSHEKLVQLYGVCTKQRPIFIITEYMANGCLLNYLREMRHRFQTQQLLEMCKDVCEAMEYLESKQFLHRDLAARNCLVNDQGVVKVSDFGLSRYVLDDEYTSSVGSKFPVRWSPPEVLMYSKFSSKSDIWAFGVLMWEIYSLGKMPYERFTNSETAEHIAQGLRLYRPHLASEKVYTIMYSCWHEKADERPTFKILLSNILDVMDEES

SMILES	IC50 (JeKo-1 cells) [µM]	IC50 (Mino cells; MINO) [µM]	DC50 (BTK) [µM]	Dmax (BTK) [%]	degradation of BTK protein (BTK; Namalwa B lymphocyte cells, various concentrations, 24 hours, Western blot)	IC50 (Mino cells) [µM]
Nc1ncnc2c1c(-c1ccc(Oc3ccccc3)cc1)nn2C1CCN(C[C@@H]2CCN(C[C@H]3CCN(c4ccc5c(c4)C(=O)N(C4CCC(=O)NC4=O)C5=O)C3)C2)CC1 (stereo partly drawn) [Compound 447d, 5-((R)-3-(((S)-3-((4-(4-amino-3-(4-phenoxyphenyl)-1H-pyrazolo[3,4-d]pyrimidin-1-yl)piperidin-1-yl)methyl)pyrrolidin-1-yl)methyl)pyrrolidin-1-yl)-2-(2,6-dioxopiperidin-3-yl)isoindoline-1,3-dione]	1 to 10	1 to 10	0.01 to 0.05	> 90		
Nc1ncnc2c1c(-c1ccc(Oc3ccccc3)cc1)nn2C1CCN(CC2CCN(CC3CCN(c4ccc5c(c4)CN(C4CCC(=O)NC4=O)C5=O)C3)C2)CC1 (stereo not drawn) [Compound 448, 3-(5-(3-((3-((4-(4-amino-3-(4-phenoxyphenyl)-1H-pyrazolo[3,4-d]pyrimidin-1-yl)piperidin-1-yl)methyl)pyrrolidin-1-yl)methyl)pyrrolidin-1-yl)-1-oxoisoindolin-2-yl)piperidine-2,6-dione]	1 to 10	1 to 10	0.01 to 0.05	> 90		
Nc1ncnc2c1c(-c1ccc(Oc3ccccc3)cc1)nn2C1CCN([C@H]2CCN(CC3CCN(c4ccc5c(c4)C(=O)N(C4CCC(=O)NC4=O)C5=O)CC3)C2)CC1 (stereo partly drawn) [Compound 449a, 5-(4-(((S)-3-(4-(4-amino-3-(4-phenoxyphenyl)-1H-pyrazolo[3,4-d]pyrimidin-1-yl)piperidin-1-yl)pyrrolidin-1-yl)methyl)piperidin-1-yl)-2-(2,6-dioxopiperidin-3-yl)isoindoline-1,3-dione]	< 1	< 1	< 0.01	> 90		
Nc1ncnc2c1c(-c1ccc(Oc3ccccc3)cc1)nn2C1CCN([C@@H]2CCN(CC3CCN(c4ccc5c(c4)C(=O)N(C4CCC(=O)NC4=O)C5=O)CC3)C2)CC1 (stereo partly drawn) [Compound 449b, 5-(4-(((R)-3-(4-(4-amino-3-(4-phenoxyphenyl)-1H-pyrazolo[3,4-d]pyrimidin-1-yl)piperidin-1-yl)pyrrolidin-1-yl)methyl)piperidin-1-yl)-2-(2,6-dioxopiperidin-3-yl)isoindoline-1,3-dione]	< 1	< 1	< 0.01	> 90		
Nc1ncnc2c1c(-c1ccc(Oc3ccccc3)cc1)nn2C1CCN(C2CCN(CC3CCN(c4ccc5c(c4)CN(C4CCC(=O)NC4=O)C5=O)CC3)C2)CC1 (stereo not drawn) [Compound 450, 3-(5-(4-((3-(4-(4-amino-3-(4-phenoxyphenyl)-1H-pyrazolo[3,4-d]pyrimidin-1-yl)piperidin-1-yl)pyrrolidin-1-yl)methyl)piperidin-1-yl)-1-oxoisoindolin-2-yl)piperidine-2,6-dione]	1 to 10	1 to 10	0.01 to 0.05	> 75		
Nc1ncnc2c1c(-c1ccc(Oc3ccccc3)cc1)nn2C1CCN(C2CCN(CC3CCN(c4ccc5c(c4)C(=O)N(C4CCC(=O)NC4=O)C5=O)C3)C2)CC1 (stereo not drawn) [Compound 451, 5-(3-((3-(4-(4-amino-3-(4-phenoxyphenyl)-1H-pyrazolo[3,4-d]pyrimidin-1-yl)piperidin-1-yl)pyrrolidin-1-yl)methyl)pyrrolidin-1-yl)-2-(2,6-dioxopiperidin-3-yl)isoindoline-1,3-dione]	1 to 10	< 1	< 0.01	> 90	dose-dependent degradation	
Nc1ncnc2c1c(-c1ccc(Oc3ccccc3)cc1)nn2C1CCN(C2CCN(CC3CCN(c4ccc5c(c4)CN(C4CCC(=O)NC4=O)C5=O)C3)C2)CC1 (stereo not drawn) [Compound 452, 3-(5-(3-((3-(4-(4-amino-3-(4-phenoxyphenyl)-1H-pyrazolo[3,4-d]pyrimidin-1-yl)piperidin-1-yl)pyrrolidin-1-yl)methyl)pyrrolidin-1-yl)-1-oxoisoindolin-2-yl)piperidine-2,6-dione]	1 to 10	< 1	0.01 to 0.05	> 75		
Nc1ncnc2c1c(-c1ccc(Oc3ccccc3)cc1)nn2C1CCN(CCN2CCC(CN3CCN(c4ccc5c(c4)C(=O)N(C4CCC(=O)NC4=O)C5=O)CC3)CC2)CC1 (stereo not drawn) [Compound 453, 5-(4-((1-(2-(4-(4-amino-3-(4-phenoxyphenyl)-1H-pyrazolo(3,4-d)pyrimidin-1-yl)piperidin-1-yl)ethyl)piperidin-4-yl)methyl)piperazin-1-yl)-2-(2,6-dioxopiperidin-3-yl)isoindoline-1,3-dione]	1 to 10		0.01 to 0.05	> 90		1 to 10
Nc1ncnc2c1c(-c1ccc(Oc3ccccc3)cc1)nn2C1CCN(CCN2CCC(CN3CCN(c4ccc5c(c4)CN(C4CCC(=O)NC4=O)C5=O)CC3)CC2)CC1 (stereo not drawn) [Compound 454, 3-(5-(4-((1-(2-(4-(4-amino-3-(4-phenoxyphenyl)-1H-pyrazolo[3,4-d]pyrimidin-1-yl)piperidin-1-yl)ethyl)piperidin-4-yl)methyl)piperazin-1-yl)-1-oxoisoindolin-2-yl)piperidine-2,6-dione]	1 to 10	> 10	> 0.05	> 50		
Nc1ncnc2c1c(-c1ccc(Oc3ccccc3)cc1)nn2C1CCN(CCN2CCC(CN3CCN(c4ccc5c(c4)C(=O)N(C4CCC(=O)NC4=O)C5=O)CC3)C2)CC1 (stereo not drawn) [Compound 455, 5-(4-((1-(2-(4-(4-amino-3-(4-phenoxyphenyl)-1H-pyrazolo(3,4-d)pyrimidin-1-yl)piperidin-1-yl)ethyl)pyrrolidin-3-yl)methyl)piperazin-1-yl)-2-(2,6-dioxopiperidin-3-yl)isoindoline-1,3-dione]	< 1		< 0.01	> 90		< 1
Nc1ncnc2c1c(-c1ccc(Oc3ccccc3)cc1)nn2C1CCN(CCN2CCC(CN3CCN(c4ccc5c(c4)CN(C4CCC(=O)NC4=O)C5=O)CC3)C2)CC1 (stereo not drawn) [Compound 456, 3-(5-(4-((1-(2-(4-(4-amino-3-(4-phenoxyphenyl)-1H-pyrazolo[3,4-d]pyrimidin-1-yl)piperidin-1-yl)ethyl)pyrrolidin-3-yl)methyl)piperazin-1-yl)-1-oxoisoindolin-2-yl)piperidine-2,6-dione]	1 to 10	1 to 10	0.01 to 0.05	> 75		
Nc1ncnc2c1c(-c1ccc(Oc3ccccc3)cc1)nn2C1CCN(CCN2CCC(N3CCN(c4ccc5c(c4)C(=O)N(C4CCC(=O)NC4=O)C5=O)CC3)CC2)CC1 (stereo not drawn) [Compound 457, 5-(4-(1-(2-(4-(4-amino-3-(4-phenoxyphenyl)-1H-pyrazolo(3,4-d)pyrimidin-1-vi)piperidin-1-yl)ethyl)piperidin-4-yl)piperazin-1-yl)-2-(2,6-dioxopiperidin-3-yl)isoindoline-1,3-dione]	< 1		< 0.01	> 90		< 1
Nc1ncnc2c1c(-c1ccc(Oc3ccccc3)cc1)nn2C1CCN(CCN2CCC(N3CCN(c4ccc5c(c4)CN(C4CCC(=O)NC4=O)C5=O)CC3)CC2)CC1 (stereo not drawn) [Compound 458, 3-(5-(4-(1-(2-(4-(4-amino-3-(4-phenoxyphenyl)-1H-pyrazolo[3,4-d]pyrimidin-1-yl)piperidin-1-yl)ethyl)piperidin-4-yl)piperazin-1-yl)-1-oxoisoindolin-2-yl)piperidine-2,6-dione]	1 to 10	1 to 10	> 0.05	> 50		
Nc1ncnc2c1c(-c1ccc(Oc3ccccc3)cc1)nn2C1CCN(CCN2CCC(N3CCN(c4ccc5c(c4)C(=O)N(C4CCC(=O)NC4=O)C5=O)CC3)C2)CC1 (stereo not drawn) [Compound 459, 5-(4-(1-(2-(4-(4-amino-3-(4-phenoxyphenyl)-1H-pyrazolo(3,4-d)pyrimidin-1-yl)piperidin-1-yl)ethyl)pyrrolidin-3-yl)piperazin-1-yl)-2-(2,6-dioxopiperidin-3-yl)isoindoline-1,3-dione]	< 1		< 0.01	> 90		< 1
Nc1ncnc2c1c(-c1ccc(Oc3ccccc3)cc1)nn2C1CCN(CCN2CCC(N3CCN(c4ccc5c(c4)CN(C4CCC(=O)NC4=O)C5=O)CC3)C2)CC1 (stereo not drawn) [Compound 460, 3-(5-(4-(1-(2-(4-(4-amino-3-(4-phenoxyphenyl)-1H-pyrazolo[3,4-d]pyrimidin-1-yl)piperidin-1-yl)ethyl)pyrrolidin-3-yl)piperazin-1-yl)-1-oxoisoindolin-2-yl)piperidine-2,6-dione]	1 to 10	1 to 10	0.01 to 0.05	> 75		
Nc1ncnc2c1c(-c1ccc(Oc3ccccc3)cc1)nn2C1CCN(CCN2CC(CN3CCN(c4ccc5c(c4)C(=O)N(C4CCC(=O)NC4=O)C5=O)CC3)C2)CC1 (stereo not drawn) [Compound 461, 5-(4-((1-(2-(4-(4-amino-3-(4-phenoxyphenyl)-1H-pyrazolo[3,4-d]pyrimidin-1-yl)piperidin-1-yl)ethyl)azetidin-3-yl)methyl)piperazin-1-yl)-2-(2,6-dioxopiperidin-3-yl)isoindoline-1,3-dione]	< 1	< 1	< 0.01	> 90		
Nc1ncnc2c1c(-c1ccc(Oc3ccccc3)cc1)nn2C1CCN(CCN2CC(CN3CCN(c4ccc5c(c4)CN(C4CCC(=O)NC4=O)C5=O)CC3)C2)CC1 (stereo not drawn) [Compound 462, 3-(5-(4-((1-(2-(4-(4-amino-3-(4-phenoxyphenyl)-1H-pyrazolo[3,4-d]pyrimidin-1-yl)piperidin-1-yl)ethyl)azetidin-3-yl)methyl)piperazin-1-yl)-1-oxoisoindolin-2-yl)piperidine-2,6-dione]	1 to 10	1 to 10	0.01 to 0.05	> 50		
